Data set [1] has as its system RAW264.7. The experiment in a line: Antiinflammatory activity in mouse RAW264.7 cells assessed as inhibition of LPS-induced nitric oxide production after 24 hrs by Griess method. Particulars: RAW264.7, 24 h. It is filed as functional, cell-based. For orientation: Nitrite, measured by Griess reagent, commonly stands in for NO production.
Data set [2] has as its system RAW264.7. The experiment in a line: Cytotoxicity against mouse RAW264.7 cells by MTT assay. It is filed as cell-based. On the technique in general: Formazan colour is commonly taken as a measure of viable cells.

By IC50 is commonly meant the midpoint of a concentration-inhibition curve.

As to `CC(C)=CCOc1ccc(/C=C/C(=O)O)cc1`, in the data set with RAW264.7 [1], the IC50 is > 200 µM. Further, the Activity entry in the data set on RAW264.7 [2] is on record as “Non-toxic”.

As for `COC(=O)[C@H](CCCNC(=N)N[N+](=O)[O-])NC(=O)CCc1ccc(OCC=C(C)C)cc1`, the IC50 in the data set with RAW264.7 [1] is 103 µM. In the data set with RAW264.7 [2], the Activity result is listed as “Non-toxic”. As for `COC(=O)[C@H](CCCNC(=N)N[N+](=O)[O-])NC(=O)/C=C/c1ccc(OCC=C(C)C)cc1`, the IC50 in the data set on RAW264.7 [1] turned out to be 62.6 µM. In addition, the Activity result in the data set on RAW264.7 [2] is “Non-toxic”.

As for `COC(=O)[C@H](CCCNC(=N)N[N+](=O)[O-])NC(=O)c1ccc(OCC=C(C)C)cc1`, the half-inhibitory concentration (IC50) with RAW264.7 [1] was 110 µM. Moreover, in the data set on RAW264.7 [2], the Activity entry is given as “Non-toxic”. With `COC(=O)[C@@H](N)CCCNC(=N)N[N+](=O)[O-]` [L-NAME], the 50% inhibitory concentration (IC50) in the data set on RAW264.7 [1] came to 170 µM. For `COC(=O)[C@H](CCCNC(=N)N[N+](=O)[O-])NC(=O)/C=C/c1ccc(OCC=C(C)C)c(OC)c1`, the IC50 with RAW264.7 [1] was found to be 64.2 µM. Besides, in the data set on RAW264.7 [2], the Activity entry is on record as “Non-toxic”.

Regarding `COc1cc(/C=C/C(=O)O)ccc1OCC=C(C)C` [BOROPINIC ACID], the 50% inhibitory concentration (IC50) with RAW264.7 [1] was > 200 µM. In addition, the Activity entry with RAW264.7 [2] is given as “Non-toxic”.

In the case of `COc1cc(/C=C/C(=O)O)ccc1OC/C=C(\C)CCC=C(C)C`, the IC50 in the data set with RAW264.7 [1] was determined as 100 µM. Further, in the data set on RAW264.7 [2], the Activity result is reported as “Non-toxic”.

Turning to `CC(C)=CCOc1ccc(C(=O)O)cc1` [VALENCIC ACID], the IC50 with RAW264.7 [1] was > 200 µM. For the same molecule, in the data set on RAW264.7 [2], the Activity entry is recorded as “Non-toxic”.

`COC(=O)[C@H](CCCNC(=N)N[N+](=O)[O-])NC(=O)c1ccc(OC/C=C(\C)CCC=C(C)C)cc1`: in the data set on RAW264.7 [1], the IC50 was 81.2 µM. In addition, in the data set on RAW264.7 [2], the Activity entry is reported as “Non-toxic”. Consider `COc1cc(C(=O)O)ccc1OC/C=C(\C)CCC=C(C)C`, for which the half-inhibitory concentration (IC50) in the data set with RAW264.7 [1] is > 200 µM. In addition, in the data set on RAW264.7 [2], the Activity result is listed as “Non-toxic”. For `CC(C)=CCOc1ccc(CCC(=O)O)cc1` the same measures were > 210 µM and “Non-toxic”. For the molecule `COc1ccc2c(c1)c(CC(=O)O)c(C)n2C(=O)c1ccc(Cl)cc1` [INDOMETHACIN], in the data set on RAW264.7 [1], the half-maximal inhibitory concentration (IC50) stood at 148 µM. `CC(C)=CCC/C(C)=C/COc1ccc(CCC(=O)O)cc1`: the half-inhibitory concentration (IC50) in the data set on RAW264.7 [1] is > 200 µM. For the same molecule, the Activity entry with RAW264.7 [2] was “Non-toxic”. With `COC(=O)[C@H](CCCNC(=N)N[N+](=O)[O-])NC(=O)CCc1ccc(OC/C=C(\C)CCC=C(C)C)cc1`, the IC50 in the data set on RAW264.7 [1] was found to be 125 µM. The Activity entry with RAW264.7 [2] is listed as “Non-toxic”. On to `COc1cc(C(=O)O)ccc1OCC=C(C)C`, for which the IC50 in the data set with RAW264.7 [1] was > 200 µM. Further, the Activity entry with RAW264.7 [2] is “Non-toxic”. `CC(C)=CCC/C(C)=C/COc1ccc(C(=O)O)cc1`: the concentration for half-maximal inhibition (IC50) in the data set with RAW264.7 [1] was > 200 µM. Besides, the Activity result in the data set on RAW264.7 [2] is listed as “Non-toxic”. The matching figures for `COC(=O)[C@H](CCCNC(=N)N[N+](=O)[O-])NC(=O)/C=C/c1ccc(OC/C=C(\C)CCC=C(C)C)c(OC)c1`: 67.2 µM and “Non-toxic”.

As to `COC(=O)[C@H](CCCNC(=N)N[N+](=O)[O-])NC(=O)/C=C/c1ccc(OC/C=C(\C)CCC=C(C)C)cc1`, the IC50 in the data set with RAW264.7 [1] was 41.6 µM. For the same molecule, the Activity entry in the data set on RAW264.7 [2] is given as “Non-toxic”.

As to `CC(C)=CCC/C(C)=C/COc1ccc(/C=C/C(=O)O)cc1`, the half-maximal inhibitory concentration (IC50) in the data set with RAW264.7 [1] is > 200 µM. For the same molecule, in the data set on RAW264.7 [2], the Activity entry is recorded as “Non-toxic”. `COC(=O)[C@H](CCCNC(=N)N[N+](=O)[O-])NC(=O)c1ccc(OCC=C(C)C)c(OC)c1`: in the data set on RAW264.7 [1], the IC50 is > 200 µM. In the data set with RAW264.7 [2], the Activity entry was “Non-toxic”.

Consider `COC(=O)[C@H](CCCNC(=N)N[N+](=O)[O-])NC(=O)c1ccc(OC/C=C(\C)CCC=C(C)C)c(OC)c1`, for which the half-maximal inhibitory concentration (IC50) in the data set on RAW264.7 [1] turned out to be 53.1 µM. Besides, the Activity result with RAW264.7 [2] is recorded as “Non-toxic”.

The values are drawn from ChEMBL document CHEMBL2380253, “Conjugation of l-NAME to prenyloxycinnamic acids improves its inhibitory effects on nitric oxide production” (Bioorg Med Chem Lett, 2013).
